Data on 23 compounds can be found in patent US20230312529A1, “PYRIMIDINE SMALL-MOLECULE COMPOUND AND APPLICATION THEREOF” (WENZHOU MEDICAL UNIVERSITY, priority 2021, published 2023).

Assay in all cases: Caliper Mobility Shift kinase inhibition test
What all share (format): biochemical

The target in one experiment is PDGFRβ (Homo sapiens (Human), UniProt P09619). The note with it: for inhibition at 0.1 µM / inhibitory rate on PDGFR-β: 100 nM; for inhibition at 0.1 µM: read-out: inhibitory rate on PDGFR-β; for IC50: read-out: IC50 PDGFR-β. How it is done: (§1) The method adopted in the test was Caliper Mobility Shift Assay, which was a detection platform based on the mobility detection technology of microfluidic chip technology. Test steps: 1.25× kinase reaction buffer (62.5 mmol/L HEPES, pH 7.5; 0.001875% Brij-35; 12.5 mmol/L MgCl2; 2.5 mM DTT) and kinase reaction stop solution (100 mmol/L HEPES, pH 7.5; 0.015% Brij-35; 0.2% Coating Reagent #3) were configured. […] Collected data was tested on Caliper to yield that inhibition ratio to kinase activity=(max−conversion)/(max−min)×100. “max” was DMSO control without adding compound, and “min” was low control. When IC50 was determined, each sample was provided with 10 dilutions, each with 2 multiple holes, and repeated for 3 times.
Sequence of PDGFRβ (P09619 33-1106): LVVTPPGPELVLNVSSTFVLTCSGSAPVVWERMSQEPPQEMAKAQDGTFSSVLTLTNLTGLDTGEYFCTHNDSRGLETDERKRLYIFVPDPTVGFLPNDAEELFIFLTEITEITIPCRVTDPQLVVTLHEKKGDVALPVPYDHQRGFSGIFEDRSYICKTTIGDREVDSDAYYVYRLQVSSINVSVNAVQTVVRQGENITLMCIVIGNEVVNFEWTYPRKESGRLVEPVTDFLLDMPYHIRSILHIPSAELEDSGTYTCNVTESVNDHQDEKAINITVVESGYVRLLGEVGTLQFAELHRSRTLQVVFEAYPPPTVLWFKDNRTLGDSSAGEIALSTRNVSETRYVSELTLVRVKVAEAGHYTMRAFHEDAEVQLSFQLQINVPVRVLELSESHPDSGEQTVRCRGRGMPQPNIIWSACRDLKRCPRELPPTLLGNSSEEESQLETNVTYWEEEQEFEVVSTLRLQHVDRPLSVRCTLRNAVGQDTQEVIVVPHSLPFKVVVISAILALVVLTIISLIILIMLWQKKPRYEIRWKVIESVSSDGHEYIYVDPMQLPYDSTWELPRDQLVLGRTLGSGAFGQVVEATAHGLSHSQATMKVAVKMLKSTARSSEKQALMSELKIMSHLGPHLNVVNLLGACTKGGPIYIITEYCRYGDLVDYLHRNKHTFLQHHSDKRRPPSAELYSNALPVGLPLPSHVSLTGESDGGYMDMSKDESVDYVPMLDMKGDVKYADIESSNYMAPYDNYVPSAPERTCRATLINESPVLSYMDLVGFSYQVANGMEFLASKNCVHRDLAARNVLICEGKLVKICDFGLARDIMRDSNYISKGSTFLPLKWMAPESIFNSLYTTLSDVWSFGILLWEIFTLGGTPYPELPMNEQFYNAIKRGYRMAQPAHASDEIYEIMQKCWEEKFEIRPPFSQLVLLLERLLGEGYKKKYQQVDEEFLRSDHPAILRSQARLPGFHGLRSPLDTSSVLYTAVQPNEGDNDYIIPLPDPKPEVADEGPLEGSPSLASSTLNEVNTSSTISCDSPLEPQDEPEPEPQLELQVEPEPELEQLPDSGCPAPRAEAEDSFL
According to the above-mentioned method for measuring kinase inhibitory activity, the inhibitory activity of the active compounds on other multiple kinases was measured to characterize the kinase selectivity of active inhibitors.

A further experiment addresses FLT3 (Homo sapiens (Human), UniProt P36888). As to conditions: 100 nM; for inhibition at 0.1 µM: read-out: inhibitory rate on FLT3. The protocol: as §1
The target in the next experiment is ABL1 (Homo sapiens (Human), UniProt P00519). As to conditions: 100 nM; for inhibition at 0.1 µM: read-out: inhibitory rate on ABL1. The protocol:
(§2) The method adopted in the test was Caliper Mobility Shift Assay, which was a detection platform based on the mobility detection technology of microfluidic chip technology. […] Collected data was tested on Caliper to yield that inhibition ratio to kinase activity=(max−conversion)/(max−min)×100. “max” was DMSO control without adding compound, and “min” was low control. When IC50 was determined, each sample was provided with 10 dilutions, each with 2 multiple holes, and repeated for 3 times.

A further experiment concerns the target PDGFRα (Homo sapiens (Human), UniProt P16234). As to conditions: 100 nM. The protocol: as §2

The term IC50 denotes the concentration at which inhibition is half-maximal.

Sequence of FLT3 (P36888 27-993): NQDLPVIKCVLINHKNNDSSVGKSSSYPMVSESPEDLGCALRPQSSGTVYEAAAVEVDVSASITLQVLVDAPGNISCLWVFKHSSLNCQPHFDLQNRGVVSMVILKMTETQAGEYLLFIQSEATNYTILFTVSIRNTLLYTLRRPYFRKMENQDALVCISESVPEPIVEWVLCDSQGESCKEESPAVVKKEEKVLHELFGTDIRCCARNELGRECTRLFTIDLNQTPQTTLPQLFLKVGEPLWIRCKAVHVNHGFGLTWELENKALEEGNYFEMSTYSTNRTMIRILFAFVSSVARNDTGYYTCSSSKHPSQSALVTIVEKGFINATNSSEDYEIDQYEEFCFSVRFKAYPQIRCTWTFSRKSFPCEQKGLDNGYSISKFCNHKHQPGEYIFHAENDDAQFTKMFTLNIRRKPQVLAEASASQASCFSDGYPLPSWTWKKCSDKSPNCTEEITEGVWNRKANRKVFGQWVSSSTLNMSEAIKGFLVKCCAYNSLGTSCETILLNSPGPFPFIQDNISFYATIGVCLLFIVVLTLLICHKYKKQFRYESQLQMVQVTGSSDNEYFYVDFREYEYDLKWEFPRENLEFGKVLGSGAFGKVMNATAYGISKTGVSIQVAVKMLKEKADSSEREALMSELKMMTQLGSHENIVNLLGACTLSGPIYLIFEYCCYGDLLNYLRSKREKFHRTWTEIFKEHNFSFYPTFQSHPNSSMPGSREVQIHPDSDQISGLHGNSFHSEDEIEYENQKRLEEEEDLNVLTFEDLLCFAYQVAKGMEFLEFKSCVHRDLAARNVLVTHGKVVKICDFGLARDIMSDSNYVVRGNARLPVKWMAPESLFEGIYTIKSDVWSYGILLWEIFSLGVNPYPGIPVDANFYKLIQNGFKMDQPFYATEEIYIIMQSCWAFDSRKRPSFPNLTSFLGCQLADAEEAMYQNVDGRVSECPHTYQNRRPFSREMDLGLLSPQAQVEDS
Sequence of ABL1 (P00519 whole entry): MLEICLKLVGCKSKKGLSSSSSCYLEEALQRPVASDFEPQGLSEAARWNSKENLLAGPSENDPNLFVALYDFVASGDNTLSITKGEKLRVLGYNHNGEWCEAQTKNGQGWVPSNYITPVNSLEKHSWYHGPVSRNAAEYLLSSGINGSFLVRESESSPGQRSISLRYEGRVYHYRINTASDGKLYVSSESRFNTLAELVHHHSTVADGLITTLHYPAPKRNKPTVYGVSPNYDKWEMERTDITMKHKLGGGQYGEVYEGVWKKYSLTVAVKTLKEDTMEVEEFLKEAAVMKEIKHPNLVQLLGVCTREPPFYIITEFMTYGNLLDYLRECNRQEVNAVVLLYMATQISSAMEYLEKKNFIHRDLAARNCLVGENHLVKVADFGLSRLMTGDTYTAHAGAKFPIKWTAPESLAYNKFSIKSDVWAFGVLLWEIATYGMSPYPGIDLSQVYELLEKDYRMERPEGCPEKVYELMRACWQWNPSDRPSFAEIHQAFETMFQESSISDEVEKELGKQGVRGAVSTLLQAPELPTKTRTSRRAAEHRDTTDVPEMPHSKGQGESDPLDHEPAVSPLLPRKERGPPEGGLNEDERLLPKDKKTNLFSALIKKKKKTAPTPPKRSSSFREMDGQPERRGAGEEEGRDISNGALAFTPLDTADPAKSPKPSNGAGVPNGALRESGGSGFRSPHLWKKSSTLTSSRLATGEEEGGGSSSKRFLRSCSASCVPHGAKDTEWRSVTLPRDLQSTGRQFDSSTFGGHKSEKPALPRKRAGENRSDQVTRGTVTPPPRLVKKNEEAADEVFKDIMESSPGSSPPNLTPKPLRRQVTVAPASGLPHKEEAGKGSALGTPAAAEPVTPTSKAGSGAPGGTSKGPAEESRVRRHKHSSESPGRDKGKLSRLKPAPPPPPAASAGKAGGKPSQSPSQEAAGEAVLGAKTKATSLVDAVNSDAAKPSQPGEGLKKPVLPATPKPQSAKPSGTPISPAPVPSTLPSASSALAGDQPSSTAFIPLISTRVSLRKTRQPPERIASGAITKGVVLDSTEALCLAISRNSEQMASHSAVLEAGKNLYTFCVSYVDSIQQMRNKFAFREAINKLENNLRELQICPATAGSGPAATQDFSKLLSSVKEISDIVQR
Sequence of PDGFRα (P16234 24-1089): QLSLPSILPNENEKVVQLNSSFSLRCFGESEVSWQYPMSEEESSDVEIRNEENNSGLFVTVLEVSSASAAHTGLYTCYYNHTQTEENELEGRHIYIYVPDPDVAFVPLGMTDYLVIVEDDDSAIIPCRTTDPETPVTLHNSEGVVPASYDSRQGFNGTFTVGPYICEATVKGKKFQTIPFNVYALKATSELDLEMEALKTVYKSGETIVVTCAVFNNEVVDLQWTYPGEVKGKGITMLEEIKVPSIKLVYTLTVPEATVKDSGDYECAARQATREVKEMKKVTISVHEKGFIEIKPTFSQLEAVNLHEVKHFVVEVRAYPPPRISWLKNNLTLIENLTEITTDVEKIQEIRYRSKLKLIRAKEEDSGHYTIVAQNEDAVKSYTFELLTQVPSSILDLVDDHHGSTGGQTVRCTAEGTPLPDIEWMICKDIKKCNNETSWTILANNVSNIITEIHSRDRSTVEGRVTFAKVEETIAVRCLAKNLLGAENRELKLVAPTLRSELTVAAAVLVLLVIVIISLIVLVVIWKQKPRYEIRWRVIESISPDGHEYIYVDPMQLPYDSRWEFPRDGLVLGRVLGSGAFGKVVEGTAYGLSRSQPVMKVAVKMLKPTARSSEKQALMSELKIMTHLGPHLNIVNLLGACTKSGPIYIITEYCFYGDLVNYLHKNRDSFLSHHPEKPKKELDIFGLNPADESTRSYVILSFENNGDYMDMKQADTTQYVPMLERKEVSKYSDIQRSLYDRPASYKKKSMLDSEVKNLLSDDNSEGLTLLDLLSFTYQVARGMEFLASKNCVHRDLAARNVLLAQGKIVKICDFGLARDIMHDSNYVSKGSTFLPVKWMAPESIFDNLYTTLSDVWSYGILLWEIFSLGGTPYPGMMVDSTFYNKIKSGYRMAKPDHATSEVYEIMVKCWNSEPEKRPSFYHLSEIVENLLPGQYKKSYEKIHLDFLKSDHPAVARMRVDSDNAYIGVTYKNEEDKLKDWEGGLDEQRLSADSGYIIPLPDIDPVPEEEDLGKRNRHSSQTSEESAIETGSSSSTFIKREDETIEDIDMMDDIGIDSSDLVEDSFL

On to `CN1CCN(c2ccc(Nc3ncc(Cl)c(Nc4ccc5cn[nH]c5c4)n3)cc2)CC1` [Compound 3b, 5-chloro-N^4-(1H-indazol-6-yl)-N^2-(4-(4-methylpiperazine-1-yl)phenyl)pyrimidine-2,4-diamine], for which the inhibition at 0.1 µM at PDGFRβ amounted to 95.8%; on FLT3, 90.2%; on ABL1, 95.1%.
The like results for `Cc1cnc(Nc2ccc(N3CCN(C)CC3)cc2)nc1Nc1ccc2cn[nH]c2c1` [Compound 3d, N^4-(1H-indazol-6-yl)-5-methyl-N^2-(4-(4-methylpiperazine-1-yl)phenyl)pyrimidine-2,4-diamine] were, in that order, 99.6%, 90.5% and 95.2%.
On the same counts, the results for `Cc1cnc(Nc2ccc(N3CCN(C)CC3)cc2)nc1Nc1ccc2c(cnn2C)c1` [Compound 5c, 5-methyl-N^4-(1-methyl-1H-indazol-5-yl)-N^2-(4-(4-methylpiperazine-1-yl)phenyl)pyrimidine-2,4-diamine] are 79.2%, 65.4% and 58.9%.
For `Cc1cnc(Nc2ccc(N3CCN(C)CC3)cc2)nc1Nc1ccc2c(C)n[nH]c2c1` [Compound 5i, 5-methyl-N^4-(3-methyl-1H-indazol-6-yl)-N^2-(4-(4-methylpiperazine-1-yl)phenyl)pyrimidine-2,4-diamine], the inhibition at 0.1 µM stood at 98% at PDGFRβ, 93.4% on FLT3 and 85.2% at ABL1. The half-inhibitory concentration (IC50) at PDGFRβ turned out to be 7.9 nM.
In the case of `Cc1cnc(Nc2ccc(N3CCN(C)CC3)cc2)nc1Nc1ccc2nccnc2c1` [Compound 5e, 5-methyl-N^2-(4-(4-methylpiperazine-1-yl)phenyl)-N^4-(benzopyrazine-6-yl)-pyrimidine-2,4-diamine], on PDGFRβ, the inhibition at 0.1 µM stood at 74.1%. Besides, on FLT3, the “inhibitory rate on FLT3” value stood at 69.8%. The “inhibitory rate on ABL1” value at ABL1 worked out at 65.5%.
Regarding `CN1CCN(c2ccc(Nc3nc(Nc4ccc5cn[nH]c5c4)cc(C(F)(F)F)n3)cc2)CC1` [Compound 3g, N^4-(1H-indazol-6-yl)-N^2-(4-(4-methylpiperazine-1-yl)phenyl)-6-(trifluoromethyl)pyrimidine-2,4-diamine], the inhibition at 0.1 µM worked out at 7.2% at PDGFRβ, 14.6% at FLT3 and 6.9% at ABL1.
Take `Cc1cnc(Nc2ccc(N3CCN(C)CC3)cc2)nc1Nc1ccc2[nH]ncc2c1` [Compound 5d]: the “inhibitory rate on PDGFR-β” value at PDGFRβ is 84.1%. For the same compound, the “inhibitory rate on FLT3” value on FLT3 is given as 80.4%. Moreover, the “inhibitory rate on ABL1” value at ABL1 is recorded as 80.9%.
On to `CN1CCN(c2ccc(Nc3ncc(F)c(Nc4ccc5cn[nH]c5c4)n3)cc2)CC1` [Compound 3a, 5-fluoro-N^4-(1H-indazol-6-yl)-N^2-(4-(4-methylpiperazine-1-yl)phenyl)pyrimidine-2,4-diamine], for which the inhibition at 0.1 µM came out at 94.4% at PDGFRβ, 87.5% on FLT3 and 90.4% on ABL1.
In the case of `COc1cc(N2CCC(N3CCN(C)CC3)CC2)ccc1Nc1ncc(C)c(Nc2ccc3cn[nH]c3c2)n1` [Compound 6k, N^4-(1H-indazol-6-yl)-N^2-(2-methoxy-4-(4-(4-methylpiperazine-1-yl)piperidine-1-yl)phenyl)-5-methylpyrimidine-2,4-diamine], the results for the inhibition at 0.1 µM at PDGFRβ, on FLT3 and at ABL1 were 76.4%, 58.4% and 47.5%, respectively.
For `Cc1cnc(Nc2ccc(N3CCOCC3)cc2)nc1Nc1ccc2cn[nH]c2c1` [Compound 6a, N^4-(1H-indazol-6-yl)-5-methyl-N^2-(4-morphinophenyl) pyrimidine-2,4-diamine], at PDGFRβ, the “inhibitory rate on PDGFR-β” value is given as 93.8% and the IC50 was found to be 4.2 nM. Further, the “inhibitory rate on FLT3” value on FLT3 is 87.2%. In addition, the “inhibitory rate on ABL1” value on ABL1 was 98.2%.
Turning to `CN1CCN(c2ccc(Nc3ncc(C(F)(F)F)c(Nc4ccc5cn[nH]c5c4)n3)cc2)CC1` [Compound 3c, N^4-(1H-indazol-6-yl)-N^2-(4-(4-methylpiperazine-1-yl)phenyl)-5-(trifluoromethyl)pyrimidine-2,4-diamine], the inhibition at 0.1 µM on PDGFRβ came out at 81%; on FLT3, 78.6%; at ABL1, 84.2%.
Take `Cc1cnc(Nc2ccc(N3CCN(C)CC3)cc2)nc1Nc1ccc2nccnc2c1` [Compound 5f, 5-methyl-N^2-(4-(4-methylpiperazine-1-yl)phenyl)-N^4-(quinoxaline-7-yl)-pyrimidine-2,4-diamine]: on PDGFRβ, the “inhibitory rate on PDGFR-β” value was 91.0%. Besides, the “inhibitory rate on FLT3” value at FLT3 is recorded as 90.5%. Besides, the “inhibitory rate on ABL1” value on ABL1 is 90.2%.
On the same counts, the results for `Cc1cnc(Nc2ccc(N3CCN(C)CC3)cc2)nc1Nc1cccc2[nH]ccc12` [Compound 5b] are 90.3%, 60.9% and 78.8%.
For `CCOC(=O)c1cnc(Nc2ccc(N3CCN(C)CC3)cc2)nc1Nc1ccc2cn[nH]c2c1` [Compound 3f, Ethyl-4-((1H-indazol-6-yl)amino)-2-((4-(4-methylpiperazine-1-yl)phenyl)amino)pyrimidine-5-carboxylate], the figures for the inhibition at 0.1 µM on PDGFRβ, at FLT3 and on ABL1 were 3.5%, 34.8% and 4.3%, respectively.
In the case of `Cc1cc2c(Nc3ccc4cn[nH]c4c3)nc(Nc3ccc(N4CCN(C)CC4)cc3)nc2s1` [Compound 3i], the “inhibitory rate on PDGFR-β” value at PDGFRβ stood at 30.7%. Also, the “inhibitory rate on FLT3” value on FLT3 stood at 42.6%. For the same compound, on PDGFRα, the “inhibitory rate on PDGFR-α” value turned out to be 6.6%. On ABL1, the “inhibitory rate on ABL1” value worked out at 23.6%.
For `COc1cnc(Nc2ccc(N3CCN(C)CC3)cc2)nc1Nc1ccc2cn[nH]c2c1` [Compound 3e, N^4-(1H-indazol-6-yl)-5-methoxy-N^2-(4-(4-methylpiperazine-1-yl)phenyl)pyrimidine-2,4-diamine], the inhibition at 0.1 µM on PDGFRβ worked out at 55%; at FLT3, 51.2%; on ABL1, 54.3%.
On the same counts, the results for `Cc1cnc(Nc2ccc(N3CCN(C)CC3)cc2)nc1Nc1ccc2c(c1)CCC2` [Compound 5h, N^4-(2,3-dihydro-1H-indene-5-yl)-5-methyl-N^2-(4-(4-methylpiperazine-1-yl)phenyl)pyrimidine-2,4-diamine] are 88.9%, 87.1% and 80.2%.
As to `Cc1cnc(Nc2ccc(N3CCN(C)CC3)cc2)nc1Nc1ccc2[nH]ccc2c1` [Compound 5a], the “inhibitory rate on PDGFR-β” value at PDGFRβ worked out at 78.6%. The “inhibitory rate on FLT3” value on FLT3 amounted to 60.3%. The “inhibitory rate on PDGFR-α” value on PDGFRα stood at 57.3%. Further, the “inhibitory rate on ABL1” value at ABL1 came to 58.9%.
`Cc1cc(Nc2ccc3cn[nH]c3c2)nc(Nc2ccc(N3CCN(C)CC3)cc2)n1` [Compound 3h]: the “inhibitory rate on PDGFR-β” value at PDGFRβ is recorded as 21.2%. The “inhibitory rate on FLT3” value on FLT3 amounted to 13.8%. Moreover, on ABL1, the “inhibitory rate on ABL1” value turned out to be 5.9%.
Consider `Cc1cnc(Nc2ccc(C(=O)N3CCN(C)CC3)cc2)nc1Nc1ccc2cn[nH]c2c1` [Compound 6m, (4-((4-((1H-indazol-6-yl)amino)-5-methylpyrimidine-2-yl)amino)phenyl) (4-methylpiperazine-1-yl)methanone], for which the results for the inhibition at 0.1 µM on PDGFRβ, at FLT3 and at ABL1 were 78.4%, 85.6% and 81%, respectively.
With `Cc1cnc(Nc2ccc(N3CCNCC3)cc2)nc1Nc1ccc2cn[nH]c2c1` [Compound 6b, N^4-(1H-indazol-6-yl)-5-methyl-N^2-(4-(piperazine-1-yl)phenyl) py rimidine-2,4-diamine], the results for the inhibition at 0.1 µM at PDGFRβ, at FLT3 and on ABL1 were 68.7%, 87.3% and 91.2%, respectively. Moreover, the IC50 on PDGFRβ worked out at 68.7 nM.
As to `Cc1cnc(Nc2ccc(N3CCN(C)CC3)cc2)nc1Nc1ccc2cn(CCNC(=O)OC(C)(C)C)nc2c1` [Compound 5j, Tert-butyl (2-(6-((5-methyl-2-((4-(4-methylpiperazine-1-yl)phenyl)amino)-pyrimidine-4-yl)amino)-2H-indazol-2-yl)ethyl) carbamate], the “inhibitory rate on PDGFR-β” value on PDGFRβ was found to be 71.1%. For the same compound, the “inhibitory rate on FLT3” value at FLT3 was 74.3%. The “inhibitory rate on ABL1” value on ABL1 is 71.6%.
With `Cc1cnc(Nc2ccc(N3CCN(C)CC3)cc2)nc1Nc1ccc2c(c1)CCCC2` [Compound 5g, 5-methyl-N^2-(4-(4-methylpiperazine-1-yl)phenyl)-N^4-(5,6,7,8-tetrahydronaphthalene-2-yl)-pyrimidine-2,4-diamine], the values for the inhibition at 0.1 µM at PDGFRβ, at FLT3 and on ABL1 were 90.4%, 85.7% and 89.2%, respectively.
